Assay results: BindingDB's records for patent US20250313563 (The Broad Institute, 2025)
Where “and” joins values, the source holds several entries; their conditions need not be identical. Equal entries are not always repeated.

How the values were obtained:
[1] = target: Glycogen synthase kinase-3 beta (Homo sapiens, UniProt P49841); test: TR-FRET Assay
How it was run: (§1)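 Enzyme and test compound were first incubated together for 30 minutes in assay buffer. The kinase reaction followed and was stopped with EDTA. The pSer641 signal was read by time-resolved FRET.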

[2] = target: Glycogen synthase kinase-3 alpha (Homo sapiens, UniProt P49840); test: TR-FRET Assay
Glycogen synthase kinase-3 alpha, sequence (P49840 whole entry): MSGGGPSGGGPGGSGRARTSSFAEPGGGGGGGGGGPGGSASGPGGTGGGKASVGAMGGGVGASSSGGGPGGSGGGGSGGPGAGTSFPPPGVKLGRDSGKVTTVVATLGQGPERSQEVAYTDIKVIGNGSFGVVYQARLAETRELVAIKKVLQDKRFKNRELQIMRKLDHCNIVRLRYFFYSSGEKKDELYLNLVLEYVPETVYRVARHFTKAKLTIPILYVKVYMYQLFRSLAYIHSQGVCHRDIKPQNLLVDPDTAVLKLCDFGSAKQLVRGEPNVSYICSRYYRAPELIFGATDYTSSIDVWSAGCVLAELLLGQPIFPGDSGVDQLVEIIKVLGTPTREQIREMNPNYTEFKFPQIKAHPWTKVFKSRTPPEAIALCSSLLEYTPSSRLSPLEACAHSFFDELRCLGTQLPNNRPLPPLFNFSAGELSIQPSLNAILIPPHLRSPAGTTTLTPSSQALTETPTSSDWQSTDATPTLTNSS
How it was run: as §1

Glycogen synthase kinase-3 beta, sequence (P49841 whole entry): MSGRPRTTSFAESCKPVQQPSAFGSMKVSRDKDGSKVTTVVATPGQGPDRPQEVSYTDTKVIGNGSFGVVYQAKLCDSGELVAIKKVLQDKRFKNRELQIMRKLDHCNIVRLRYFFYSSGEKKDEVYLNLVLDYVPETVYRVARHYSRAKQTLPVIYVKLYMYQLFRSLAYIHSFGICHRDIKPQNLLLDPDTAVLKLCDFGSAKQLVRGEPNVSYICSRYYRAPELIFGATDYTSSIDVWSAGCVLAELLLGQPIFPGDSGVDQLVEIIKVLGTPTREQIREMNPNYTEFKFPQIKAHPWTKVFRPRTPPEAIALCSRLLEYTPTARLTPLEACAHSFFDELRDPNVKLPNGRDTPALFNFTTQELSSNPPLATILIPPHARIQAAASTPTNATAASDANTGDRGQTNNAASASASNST

IC50 [1]	IC50 [2]	Compound
> 5 µM	1 to 5 µM	CCC1(c2cccc(N3CCOCC3)c2)C2=CN=NC2NC2=C1C(=O)NC(C)(C)C2 (configuration not stated) [US20250313563, Compound 945602]
< 0.1 µM	< 0.1 µM	CC1(C)CC(=O)C2=C(C1)NC1=C(CN=N1)C21COC2(CN(C(=O)C(C)(C)F)C2)C1 (configuration not stated) [US20250313563, Compound 947276]
1 to 5 µM	0.1 to 1 µM	CCC1(c2cccc(C(F)(F)F)c2)C2=C(N=NC2)NC2=C1C(=O)N(C)C2 (configuration not stated) [US20250313563, Compound 917294]
1 to 5 µM	0.1 to 1 µM	CC[C@@]1(c2cccc(-c3cnn(-c4ccccn4)c3)c2)C2=CN=NC2NC2=C1C(=O)NC(C)(C)C2 (some centres not stated) [US20250313563, Compound 952566]
< 0.1 µM and 1 to 5 µM	< 0.1 µM and 0.1 to 1 µM	CC[C@@]1(c2cccc(-c3ccncc3O)c2)C2=CN=NC2NC2=C1C(=O)CC(C)(C)C2 (some centres not stated) [US20250313563, Compound 945724]
> 5 µM	0.1 to 1 µM	CC[C@@]1(c2cccc(C(F)(F)F)c2)C2=CN=NC2NC2=C1C(=O)N(c1ccccn1)CC2 (some centres not stated) [US20250313563, Compound 949311]
0.1 to 1 µM	0.1 to 1 µM	CCc1cc(-c2cccc([C@]3(CC)C4=CN=NC4NC4=C3C(=O)NC(C)(C)C4)c2)n(C)n1 (some centres not stated) [US20250313563, Compound 952561]
1 to 5 µM	0.1 to 1 µM	CCC1(c2cccc(N(C)c3ccnn3C)c2)C2=CN=NC2NC2=C1C(=O)CC(C)(C)C2 (configuration not stated) [US20250313563, Compound 889604]
1 to 5 µM	0.1 to 1 µM	CCN(C(C)=O)c1cccc([C@]2(CC)C3=CN=NC3NC3=C2C(=O)CC(C)(C)C3)c1 (some centres not stated) [US20250313563, Compound 909215]
> 1.67 µM	0.1 to 1 µM	CCC1(c2cccc(OCCOC)c2)C2=CN=NC2NC2=C1C(=O)CC(C)(C)C2 (configuration not stated) [US20250313563, Compound 801446]
> 5 µM	1 to 5 µM	CC[C@]1(c2cccc(-c3cc(C)nnc3C)c2)C2=C(CC(C)(C)NC2=O)NC2N=NC(C)=C21 (some centres not stated) [US20250313563, Compound 949332]
< 0.1 µM	< 0.1 µM	CCC1(c2cccc(N(C)c3ccnc(C(F)(F)F)c3)c2)C2=CN=NC2NC2=C1C(=O)CC(C)(C)C2 (configuration not stated) [US20250313563, Compound 913254]
1 to 5 µM	0.1 to 1 µM	CC[C@]1(c2cccc(C(F)(F)F)c2)C2=CN=NC2NC2=C1C(=O)N(C)C(C)(C)C2 (some centres not stated) [US20250313563, Compound 826790]
< 0.1 µM	< 0.1 µM	CC1(C)CC(=O)C2=C(C1)NC1=C(CN=N1)C21CCN(S(=O)(=O)c2ccc(C(F)(F)F)cn2)CC1 [US20250313563, Compound 947902]
> 5 µM	1 to 5 µM	CC[C@]1(c2cccc(C(F)F)c2)C2=CN=NC2NC2=C1C(=O)NC(C)(C)C2 (some centres not stated) [US20250313563, Compound 949007]
> 5 µM	0.1 to 1 µM	CC[C@@]1(c2cccc(N(C)c3ncccn3)c2)C2=CN=NC2NC2=C1C(=O)NC(C)(C)C2 (some centres not stated) [US20250313563, Compound 943965]
1 to 5 µM	0.1 to 1 µM	CC[C@@]1(c2cccc(-c3cnn(CC4CCOC4)c3)c2)C2=CN=NC2NC2=C1C(=O)NC(C)(C)C2 (some centres not stated) [US20250313563, Compound 951836]
< 0.1 µM and 0.1 to 1 µM	< 0.1 µM	CC[C@@]1(c2cccc(-c3cnn(C)c3)c2)C2=C(CC(C)(C)NC2=O)NC2N=NC(C(F)F)=C21 (some centres not stated) [US20250313563, Compound 949919]
< 0.1 µM and 0.1 to 1 µM	< 0.1 µM	CC1(C)CC(=O)C2=C(C1)NC1=C(CN=N1)[C@]21CCN(S(=O)(=O)c2ccccc2F)C1 [US20250313563, Compound 945718]
1 to 5 µM	0.1 to 1 µM	CC[C@]1(c2cccc(C(F)(F)F)c2)C2=CN=NC2NC2=C1C(=O)NCC2 (some centres not stated) [US20250313563, Compound 912622]
0.1 to 1 µM	< 0.1 µM	CC[C@]1(c2cccc(C(F)(F)F)c2)C2=CN=NC2NC2=C1C(=O)N(C(C)C)CC2 (some centres not stated) [US20250313563, Compound 857336]
0.1 to 1 µM	< 0.1 µM	CC[C@@]1(c2cccc(C(F)(F)F)c2)C2=C(N=NC2)NC2=C1C(=O)N(C)C2(C)C [US20250313563, Compound 918252]
< 0.1 µM	< 0.1 µM	CCC1(c2cccc(C(F)(F)F)c2)C2=CN=NC2NC2=C1C(=O)NC1(CCC1)C2 (configuration not stated) [US20250313563, Compound 902202]

IC50 [1]	IC50 [2]	Compound
0.1 to 1 µM	< 0.1 µM	CCC1(c2cccc(N(C)C(=O)CN3CCCC3)c2)C2=CN=NC2NC2=C1C(=O)CC(C)(C)C2 (configuration not stated) [US20250313563, Compound 913125]
< 0.1 µM and 0.1 to 1 µM	< 0.1 µM and 0.1 to 1 µM	CC[C@@]1(c2cccc(-c3ccn(C)n3)c2)C2=C(CC(C)(C)CC2=O)NC2N=NC(C)=C21 (some centres not stated) [US20250313563, Compound 913030]
> 5 µM	> 5 µM	CC[C@]1(c2ccccc2)C2=CN=NC2NC2=C1C(=O)[C@H](F)C(C)(C)C2 (some centres not stated) [US20250313563, Compound 957406]
< 0.1 µM	< 0.1 µM	CCC1(c2cccc(-c3cn(C)nc3C)c2)C2=CN=NC2NC2=C1C(=O)CC(C)(C)C2 (configuration not stated) [US20250313563, Compound 926840]
0.1 to 1 µM	< 0.1 µM	CC[C@]1(c2cc(N(C)C(C)=O)ccc2F)C2=CN=NC2NC2=C1C(=O)CC(C)(C)C2 (some centres not stated) [US20250313563, Compound 929450]
< 0.1 µM	< 0.1 µM	CC1(C)CC(=O)C2=C(C1)NC1=C(CN=N1)C21CCN(S(=O)(=O)c2cccc(F)c2)CC1 [US20250313563, Compound 901466]
< 0.1 µM	< 0.1 µM	CCC1(c2cccc(-c3cn(C)nc3C)c2)C2=C(CC(C)(C)NC2=O)NC2N=NC(Cl)=C21 (configuration not stated) [US20250313563, Compound 948768]
0.1 to 1 µM	< 0.1 µM	CC1(C)CC2=C(C(=O)N1)C1(CCN(S(=O)(=O)c3cnn(C(C)(C)C)c3)CC1)C1=C(N=NC1)N2 [US20250313563, Compound 947835]
< 0.1 µM	< 0.1 µM	CC1(C)CC(=O)C2=C(C1)NC1=C(CN=N1)C21CCC2(CC2)CC1 [US20250313563, Compound 893312]
< 0.1 µM and 0.1 to 1 µM	< 0.1 µM	COc1ccccc1S(=O)(=O)N1CCC2(CC1)C1=C(N=NC1)NC1=C2C(=O)CC(C)(C)C1 [US20250313563, Compound 893310]
0.1 to 1 µM	< 0.1 µM	CC1CCCC1C(=O)N1CC2(C1)CC1(CO2)C2=C(N=NC2)NC2=C1C(=O)CC(C)(C)C2 (configuration not stated) [US20250313563, Compound 947274]
0.1 to 1 µM	< 0.1 µM	CCC1(c2cccc(-c3ccnc(C(F)(F)F)c3)c2)C2=C(CC(C)(C)CC2=O)NC2N=NC(C)=C21 (configuration not stated) [US20250313563, Compound 883989]
0.1 to 1 µM	< 0.1 µM	CC1(C)CC(=O)C2=C(C1)NC1=C(CN=N1)[C@]21CCCN(S(=O)(=O)C2CC2)CC1 [US20250313563, Compound 932659]
1 to 5 µM	0.1 to 1 µM	CC1(C)CC(=O)C2=C(C1)NC1=C(CN=N1)[C@@]21CCOC2(CCCC2)C1 [US20250313563, Compound 907326]
> 5 µM	> 5 µM	CC1(C)CC(=O)C2=C(C1)NC1=C(CN=N1)C21CN(Cc2cnc3ccccn23)C1 [US20250313563, Compound 932654]
1 to 5 µM	1 to 5 µM	CCC1(c2cccc(N3CCc4cnccc4C3)c2)C2=CN=NC2NC2=C1C(=O)CC(C)(C)C2 (configuration not stated) [US20250313563, Compound 929449]
< 0.1 µM	< 0.1 µM	CCC1(c2cccc(-c3ccncc3O)c2)C2=C(CC(C)(C)CC2=O)NC2N=NC(C)=C21 (configuration not stated) [US20250313563, Compound 944024]
1 to 5 µM	0.1 to 1 µM	CC[C@@]1(c2cccc(-c3cc(C)nn3C)c2)C2=C(N=NC2)NC2=C1C(=O)C(C)(C)C2 [US20250313563, Compound 950818]
0.1 to 1 µM	< 0.1 µM	CC1(C)CC(=O)C2=C(C1)NC1N=NC=C1C21CCN(S(=O)(=O)c2cnc3n2CCC3)CC1 (configuration not stated) [US20250313563, Compound 947467]
0.1 to 1 µM	< 0.1 µM	CC[C@@H]1C[C@]2(CCO1)C1=C(N=NC1)NC1=C2C(=O)CC(C)(C)C1 [US20250313563, Compound 924715]
0.1 to 1 µM	< 0.1 µM	CC1(C)CC(=O)C2=C(C1)NC1=C(CN=N1)C21COC2(CN(C(=O)C3CCCCCC3)C2)C1 (configuration not stated) [US20250313563, Compound 947308]
0.1 to 1 µM	0.1 to 1 µM	CC[C@]1(c2cc(-c3ccncc3)ccc2C)C2=CN=NC2NC2=C1C(=O)CC(C)(C)C2 (some centres not stated) [US20250313563, Compound 893323]
> 5 µM	> 5 µM	CC[C@]1(c2cccc(CN(C)c3ccc(C(F)(F)F)nc3)c2)C2=CN=NC2NC2=C1C(=O)CC(C)(C)C2 (some centres not stated) [US20250313563, Compound 945484]
